Where a name gives a salt, the structure may show the parent alone.
How the values were obtained:
[1] = system: thromboxane receptor (increase in tracheal pressure caused by U46619); test: IC50 on tracheal pressure in guinea pigs (U46619-induced bronchoconstriction); type: in vivo, guinea pig; conditions: anesthetized guinea pigs, antagonist injected 5 minutes before U46619 (2 μg/kg i.v.); for ED50: Cavia porcellus, iv, 5 min, read-out: IC50, dose of antagonist that inhibits by 50% the increase in tracheal pressure caused by U46619
Excerpt: IC50 on tracheal pressure in guinea pigs
Male albino guinea pigs (350-400 g) subjected to an 18-hour water diet are anesthetized with ethyl carbamate (1.25 g/kg i.p.). A catheter is introduced into the carotid artery in order to measure the arterial blood pressure by means of a pressure cell. A second catheter is introduced into the jugular vein and is used to inject the pharmacological substances. The trachea is cannulated and the guinea pig is placed in assisted respiration by means of a respirator. The animal's temperature is maintained at 37° C. using a thermostated blanket. A needle pushed into the tracheal cannula is connected to a pressure cell and enables the tracheal pressure to be recorded.
The guinea pigs are pretreated with d-tubocurarine (1 mg/kg i.v.) and with indomethacin (10 mg/kg i.v.). Injected at a dose of 2 μg/kg i.v., U46619 produces a bronchoconstriction which leads to an increase in tracheal pressure and induces an increase in arterial blood pressure. The responses to U46619 are reversible and reproducible if the injections are carried out every 10 minutes.
The thromboxane receptor antagonists are injected 5 minutes before the injections of U46619. The dose of antagonist that inhibits by 50% the increase in tracheal pressure caused by U46619 is determined (IC50).

guinea pig trachea = biological target: T1, guinea pig trachea (Cavia porcellus, UniProt A0A286Y4I8); test: Determination of the pA2 values on guinea pig trachea (U46619-induced contraction); type: cell-based; conditions: isolated guinea pig trachea rings, 37° C., agonist U46619, antagonist contact 20 minutes
T1 construct: the trachea is rapidly removed and then cut into two-cartilage rings; from tissue; host or cells: guinea pig trachea, two-cartilage rings (isolated organ)
T1 sequence (A0A286Y4I8 1-347): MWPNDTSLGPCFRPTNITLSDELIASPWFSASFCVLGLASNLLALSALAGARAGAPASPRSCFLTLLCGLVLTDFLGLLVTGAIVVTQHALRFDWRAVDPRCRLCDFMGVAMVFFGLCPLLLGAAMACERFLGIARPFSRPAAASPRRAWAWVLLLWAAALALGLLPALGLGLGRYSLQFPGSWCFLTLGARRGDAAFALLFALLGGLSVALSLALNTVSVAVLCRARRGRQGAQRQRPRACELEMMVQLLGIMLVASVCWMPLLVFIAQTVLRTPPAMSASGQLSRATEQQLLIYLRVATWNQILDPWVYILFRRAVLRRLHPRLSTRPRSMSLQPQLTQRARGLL
Experimental: Determination of the pA2 values on guinea pig trachea
Male albino guinea pigs weighing 400-500 grams were sacrificed by a blow to the back of the neck and by cervical elongation. The throat is opened and the trachea is rapidly removed and then cut into two-cartilage rings. These rings are mounted between two hooks in cells thermostated at 37° C. containing physiological fluid (composition in mM:NaCl 118; NaHCO3 25; glucose 10; KCl 4.7; CaCl2 1.25; MgSO4 1.19; KH2 PO4 1.14).
A 95% O2 /5% CO2 mixture is bubbled through the physiological solution. The lower hook constitutes the fixed point while the upper hook is connected to an isometric strength gage. The tissues are placed under a baseline tension of 3.5 grams. The test pharmacological substances are prepared immediately before use. The drugs are solubilized in water or in dimethyl sulfoxide.
After mounting, the preparations are left standing for 90 minutes, rinses being performed every 30 minutes. After readjustment of the baseline tension, a contraction produced by a single dose of agonist (U46619; 10^-5 M) is produced in order to make the following contractions consist. After washing and return to the baseline, a first effect/concentration curve is established by adding cumulative doses of U46619 (10^-9 M to 10^-5 M, with semi-log spacing between the doses). This first experiment enables the "control" 50% effective concentration (EC50) to be calculated.
This EC50 is routinely calculated in the following manner: the tension values are first converted to percentages relative to the maximum effect, these percentages then being plotted on a graph with the percentages as ordinates and the log (concentration) values as abscissae. A linear regression is then carried out on the points lying between 10% and 90% (which corresponds to the linear portion of the sigmoid curve). The concentration corresponding to half the maximum effect (50%) may be readily calculated using the parameters of the linear plot.
After washing and return to the baseline, the organ is brought into contact with the antagonist ([…]) for 20 minutes. A second effect/concentration curve is then established in the presence of the antagonist, and the "treated" EC50 can then be calculated. All the elements enabling the pA2 (competitive antagonism) or pD2 (non-competitive antagonism) to be calculated are thereby obtained.
The pA2 (which represents the negative logarithm of the antagonist concentration in the presence of which twice as much agonist is required in order to obtain the same effect) is determined by plotting on a graph the values of log ((L/1)-1) with respect to log (antagonist concentration), where L=effect in presence of antagonist and 1=control effect.

[2] = system: platelet aggregation response induced by U46619 (TXA2 receptor agonist); test: Platelet aggregation: inhibition of U46619-induced aggregation of rabbit platelet-rich plasma; type: cell-based; conditions: Oryctolagus cuniculus, rabbit PRP, 37° C., antagonist 3 min before U46619 (1.2 μM), read-out: IC50, concentration inducing 50% inhibition of the aggregation response induced by U46619
Experimental: Rabbits (2-3 kg) are anesthetized with pentobarbital sodium (30 mg/kg i.v.). After cannulation of the left carotid artery, blood is withdrawn onto sodium citrate (0.109M) (1 vol. of citrate per 9 vol. of blood).
Platelet-rich plasma (PRP) is obtained by centrifugation (20° C.) at 250 g for 20 minutes, and platelet- poor plasma (PPP) by centrifugation at 1000 g (10 min). The number of platelets (PL) in the PRP is adjusted to 300-350,000 PL/mm^3 by dilution with autologous PPP. The PRP is stored at the temperature of the room until the time of the test, and is used within 4 hours following withdrawal.
Platelet aggregation is carried out at 37° C. in siliconed glass tubes using an aggregometer. The PRP and PL are stirred at 1000 rpm (revolutions per minute). In order to study the activity of thromboxane antagonists, the PRP is incubated for 1 min at 37° C., and the antagonist is then added for a period of 3 min before addition of the agonist U46619 (1.2 μM). The final volume in the cell is then 250 μl. The intensity of platelet aggregation is established by taking the maximum amplitude of the aggregation plots and is expressed as a percentage light transmission (% T). The activity of the antagonists is expressed as IC50, that is to say the concentration of the substance which induces a 50% inhibition of the aggregation response induced by U46619.

thromboxane synthase = biological target: T2, thromboxane synthase (Oryctolagus cuniculus, UniProt G1TAZ9); test: Anti-thromboxane synthase activity (TXB2 levels in serum of rabbit blood, radio immunoassay); type: cell-based; conditions: 37° C., one hour, serum TXB2 by radio immunoassay, read-out: IC50, inhibition of TXB2 level
T2 construct: from tissue; host or cells: rabbit whole blood (clotting; by own knowledge the enzyme is chiefly that of platelets)
T2 sequence (G1TAZ9 1-530): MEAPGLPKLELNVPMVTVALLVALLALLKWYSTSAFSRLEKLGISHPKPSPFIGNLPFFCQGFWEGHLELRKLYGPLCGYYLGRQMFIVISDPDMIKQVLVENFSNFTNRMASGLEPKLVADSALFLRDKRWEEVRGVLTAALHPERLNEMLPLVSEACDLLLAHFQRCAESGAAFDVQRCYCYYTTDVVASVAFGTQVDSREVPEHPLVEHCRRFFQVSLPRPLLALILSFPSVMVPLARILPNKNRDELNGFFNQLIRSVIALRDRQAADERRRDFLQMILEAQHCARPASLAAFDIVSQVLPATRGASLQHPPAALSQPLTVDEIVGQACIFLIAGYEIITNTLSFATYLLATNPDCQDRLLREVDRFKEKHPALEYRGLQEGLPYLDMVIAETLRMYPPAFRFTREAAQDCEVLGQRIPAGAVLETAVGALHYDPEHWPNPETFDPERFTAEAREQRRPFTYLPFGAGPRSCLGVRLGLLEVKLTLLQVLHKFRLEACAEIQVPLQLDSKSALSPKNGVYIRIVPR
Experimental: Anti-thromboxane synthase activity
Albino New Zealand rabbits weighing approximately 2 kg are used. These rabbits are anesthetized with pentobarbital (30 mg/kg i.v.). Blood is collected via carotid catheter in dry glass tubes, in the proportion of 1 ml per tube, in the presence or absence of different concentrations of inhibitor. The inhibitors are diluted in physiological fluid in order to avoid possible hemolysis.
The tubes are placed in a water bath at 37° C. for one hour. After coagulation, the tubes are cooled to 4° C. and centrifuged at 2000 g for 20 minutes in order to separate the serum from the clot. The serum may be frozen at -20° C. for 2 weeks for a subsequent assay.
The levels of TXB2, the stable metabolite of TXA2, in the serum are determined by radio immunoassay.
The levels obtained in the presence of the different doses of inhibitor are converted to a percentage inhibition relative to the baseline level of TXB2, in order to calculate the IC50 of the inhibitor. The latter is obtained by non-linear regression using the following equation (Michaelis L, Menten ML, Die Kinetik der Invertinwirkung, Biochem. Zeitschrifft, 1913, 49, 333-369):
I=(Imax * C^n) / (IC^n +C^n)
C=inhibitor concentration

| SMILES | ED50 [1] [mg/kg] | Kb (guinea pig trachea) [µM] | IC50 [2] [µM] | IC50 (thromboxane synthase) [µM] | IC50, dose of antagonist that inhibits by 50% the increase in tracheal pressure caused by U46619 [1] [mg/kg] |
| --- | --- | --- | --- | --- | --- |
| O=C(O)CCC/C=C\C[C@@H]1CCN(S(=O)(=O)c2ccc(F)cc2)[C@@H]1c1cccc(O)c1 (relative stereo) [Example 15, (5Z)-7-[(2α,3α)-1-(4-Fluorophenylsulfonyl)-2-(3-hydroxyphenyl)-3-pyrrolidinyl]-5-heptenoic acid sodium salt] | 0.16 | 0.0398 | 20 |  |  |
| O=C(O)CC/C=C\C[C@@H]1CCN(S(=O)(=O)c2ccc(F)cc2)[C@@H]1c1cccnc1 (relative stereo) [Example 2, (4Z)-6-[(2α,3α)-1-(4-Fluorophenylsulfonyl)-2-(3-pyridyl)-3-pyrrolidinyl]-4-hexenoic acid sodium salt] |  |  |  | 200 |  |
| O=C([O-])CC/C=C\C[C@@H]1CCN(S(=O)(=O)c2ccc(F)cc2)[C@H]1c1ccccc1.[Na+] [Example 4, (4Z)-6-[(2α,3α)-1-(4-Fluorophenylsulfonyl)-2-phenyl-3-pyrrolidinyl]-4-hexenoic acid sodium salt] |  |  |  |  | 0.7 |
| O=C(O)CC/C=C\C[C@@H]1CCN(Cc2cccnc2)[C@@H]1c1ccccc1 (relative stereo) [Example 21, (4Z)-6-{(2α,3α)-1-[(3-Pyridyl)methyl]-2-phenyl-3-pyrrolidinyl}-4-hexenoic acid sodium salt] | 0.17 | 0.00182 |  | 8.5 |  |
| O=C(O)CCCCC[C@@H]1CCN(S(=O)(=O)c2ccc(F)cc2)[C@@H]1c1cccnc1 (relative stereo) [Example 20, 6-[(2α,3α)-1-(4-Fluorophenylsulfonyl)-2-(3-pyridyl)-3-pyrrolidinyl) hexanoic acid sodium salt] |  |  |  | 60 |  |
| O=C(O)CC/C=C\C[C@@H]1CCN(S(=O)(=O)c2ccc(F)cc2)[C@@H]1c1cccc(O)c1 (relative stereo) [Example 14, (4Z)-6-[(2α,3α)-1-(4-Fluorophenylsulfonyl)-2-(3-hydroxyphenyl)-3-pyrrolidinyl]-4-hexenoic acid sodium salt] | 0.07 | 0.01 | 20 |  |  |
| O=C(O)CCCCC[C@@H]1CCN(Cc2cccnc2)[C@@H]1c1ccccc1 (relative stereo) [Example 22, 6-{(2α,3α)-1-[(3-Pyridyl)methyl]-2-phenyl-3-pyrrolidinyl}hexanoic acid sodium salt] |  | 7.08 |  |  |  |
| O=C(O)CC/C=C\C[C@@H]1CCN(Cc2cccnc2)[C@@H]1c1cccc(O)c1 (relative stereo) [Example 26, (4Z)-6-{(2α,3α)-1-[(3-Pyridyl)methyl]-2-(3-hydroxyphenyl) -3-pyrrolidinyl}-4-hexenoic acid sodium salt] | 0.03 | 0.0309 |  |  |  |
| COc1cccc([C@@H]2[C@H](C/C=C\CCC(=O)O)CCN2S(=O)(=O)c2ccc(F)cc2)c1 (relative stereo) [Example 1, (4Z)-6-[(2α,3α)-1-(4-Fluorophenylsulfonyl)-2-(3-methoxyphenyl)-3-pyrrolidinyl]-4-hexenoic acid sodium salt] |  | 0.0631 |  |  |  |
